# Laboratory results taken from US20040126823A1, “Modulation of prostaglandin synthesis and cancer growth” (priority 2002, published 2004).
# System: Tpl2+/+ macrophages
# Assay: PGE2 levels in LPS treated macrophages (ELISA of culture supernatants)
# Assay type: cell-based, mouse
# Settings: pre-treatment with 20 pM PD98059; Tpl2+/+ macrophages stimulated for 4.5 hrs with LPS
# Protocol: Tpl2+/+ and Tpl2−/− macrophage cultures were stimulated with […] LPS. Culture supernatants collected at 0, 3, 4.5, 6 or 10 hrs were analysed for PGE2 levels by ELISA. Unstimulated Tpl2+/+ and Tpl2−/− macrophage cultures secreted similar levels of PGE2 respectively. PGE2 levels produced by unstimulated cells were given the arbitrary value of 1. The bar graphs show the fold induction of PGE2 (±SD) compared to control untreated cultures.
structure (smiles),measurement,value
COc1cccc(-c2cc(=O)c3ccccc3o2)c1N [PD98059],PGE2 secretion,inhibited PGE2 secretion
